Reference: patent publication US8242134B2, “Isoquinolinone derivatives as NK3 antagonists” (H. Lundbeck A/S, priority 2008, dated 2012)

Experiments:
human NK3 receptor = target: T1, human NK3 receptor (Homo sapiens, UniProt P29371); assay: NK3 receptor binding assay (SPA competition binding, 125I-NKB); settings: read-out: Affinity (Ki/nM)
T1 construct: expressed in transfected cells
T1 sequence (P29371 1-465): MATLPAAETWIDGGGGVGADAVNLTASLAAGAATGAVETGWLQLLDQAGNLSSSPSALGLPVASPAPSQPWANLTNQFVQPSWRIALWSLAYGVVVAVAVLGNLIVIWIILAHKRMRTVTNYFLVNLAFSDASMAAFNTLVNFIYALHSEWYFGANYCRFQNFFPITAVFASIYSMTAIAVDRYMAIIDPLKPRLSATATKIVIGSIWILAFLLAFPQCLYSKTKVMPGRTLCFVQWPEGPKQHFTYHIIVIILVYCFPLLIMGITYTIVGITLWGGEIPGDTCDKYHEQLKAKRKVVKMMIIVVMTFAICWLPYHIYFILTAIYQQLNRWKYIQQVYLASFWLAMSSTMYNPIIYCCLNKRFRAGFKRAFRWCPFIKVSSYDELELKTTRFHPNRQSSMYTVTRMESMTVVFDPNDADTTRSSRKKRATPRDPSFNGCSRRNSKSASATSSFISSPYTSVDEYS
Procedure: Membrane preparation: BHK cells stably expressing the human NK3 receptor were seeded in harvesting plates in Dulbeccos MEM containing GlutaMax (862 mg/l), 1 mM sodium pyruvate, 10% fetal calf serum, 1% Pen/Strep, 1 mg/ml G418 and were grown at 34° C. in a humidified atmosphere containing 10% CO2. To increase receptor expression, 10 μM trichotatin A was added to the media 24 hours before harvest of the cells at a confluency of app 90%. Prior to the harvesting, the cells were washed twice with PBS without Mg^2+ og Ca^2+ and subsequently scrapped of in 10 ml PBS pr harvesting plate. The cells suspension were centrifuged at 1500×G in three minutes before resuspension in 15 mM Tris-HCl pH 7.5 buffer containing 2 mM MgCl2; 0.3 mM EDTA and 1 mM EGTA (buffer A). The cell suspension was homogenised and subsequently centrifuged at 40000×G in 30 minutes. The membrane-pellet was resuspended in buffer A containing 250 mM sucrose, aliquoted and stored at −80° C.
Affinity assay description: The assay was performed as a SPA-based competition-binding assay in a 50 mM Tris pH 7.4 assay buffer containing 120 mM NaCl, 3 mM MnCl2, 40 μg/ml bacitracin, 2 μg/ml Chymostatin, 1 μg/ml Phosphoramidon and 4 μg/ml Leupeptin. […] The assay plate was subsequently under agitation incubated for 90 min at RT.

[1] = cited from earlier work

Row | Structure (SMILES) | Ki (human NK3 receptor) [nM] | further results
1 | Cc1c(C(=O)N[C@H](c2cccc(F)c2)C2CCC2)c2cccc(F)c2c(=O)n1[C@H]1CCOC1 [Example 4r, 8-Fluoro-3-methyl-1-oxo-2-(S)-tetrahydro-furan-3-yl-1,2-dihydro-isoquinoline-4-carboxylic acid [(S)-cyclobutyl-(3-fluoro-phenyl)-methyl]-amide] | 170 | –
2 | Cc1c(C(=O)N[C@H](c2cccc(F)c2)C2CC2)c2cccc(F)c2c(=O)n1[C@@H]1CCNC1 [Example 5g, 8-Fluoro-3-methyl-1-oxo-2-(R)-1-pyrrolidin-3-yl-1,2-dihydro-isoquinoline-4-carboxylic acid [(S)-cyclopropyl-(3-fluoro-phenyl)-methyl]-amide] | 180 | –
3 | CC(=O)N(C)C1(c2ccccc2)CCN(CCC[C@]2(c3ccc(Cl)c(Cl)c3)CCCN(C(=O)c3ccccc3)C2)CC1 [Osanetant, osanetant] | – | effect in clinical trials versus placebo ([1]; in particular on positive symptoms of psychosis): superior to placebo
4 | CC[C@H](NC(=O)c1c(O)c(-c2ccccc2)nc2ccccc12)c1ccccc1 [Talnetant, talnetant] | – | effect on cognitive behaviour of schizophrenics in clinical trials ([1]; in vivo): ameliorate the cognitive behaviour of schizophrenics
